US20050148631A1, “Amino heterocyclyl inhibitors of 11-beta-hydroxy steroid dehydrogenase type 1” (AGOURON PHARMACEUTICALS, INC., priority 2003, published 2005)
Like-named read-outs stand apart in the source and are kept apart here.

Key:
11β-hsd-1 enzyme [1] = molecular target: T1, 11β-hsd-1 enzyme (Homo sapiens, UniProt P28845); test: 11β-hsd-1 enzyme assay, Kiapp determination (3H-cortisone to cortisol, radio-HPLC); assay type: biochemical; settings: read-out: Ki app
11β-hsd-1 enzyme [2] = molecular target: T1, 11β-hsd-1 enzyme; test: 11β-hsd-1 enzyme assay, percentage of inhibition (3H-cortisone to cortisol, radio-HPLC); assay type: biochemical
[3] = 0.1 uM, read-out: % inh @ 0.1 uM
[4] = compound at 0.1 uM, read-out: % inh @ 0.1 uM

T1 sequence (P28845 whole entry, species assumed): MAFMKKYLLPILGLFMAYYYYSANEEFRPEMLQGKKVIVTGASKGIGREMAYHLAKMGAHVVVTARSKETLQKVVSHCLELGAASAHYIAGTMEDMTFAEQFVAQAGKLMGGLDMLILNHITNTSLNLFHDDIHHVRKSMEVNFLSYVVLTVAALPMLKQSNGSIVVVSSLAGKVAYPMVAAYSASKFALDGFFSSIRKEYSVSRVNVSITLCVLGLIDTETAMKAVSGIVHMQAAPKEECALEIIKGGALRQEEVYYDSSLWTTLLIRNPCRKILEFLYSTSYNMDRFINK

Row | Ki (11β-hsd-1 enzyme [1]) | inhibition at 0.1 µM (11β-hsd-1 enzyme [2]; [3]) | Ki (11β-hsd-1 enzyme [1]; apparent Ki, 11β-hsd-1 enzyme) | inhibition at 0.1 µM (11β-hsd-1 enzyme [2]; [4]) | inhibition at 0.1 µM (11β-hsd-1 enzyme [2]; read-out: % inh @ 0.1 uM, compound at 0.1 uM) | Structure (SMILES)
1 | 270 nM | 57.2% | – | – | – | Cc1cccc(NS(=O)(=O)/C=C/c2ccccc2)n1 [Example 109]
2 | – | – | 67 nM | 67.4% | – | O=S(=O)(Nc1ccc2ccccc2n1)N1CCC(c2ccccn2)CC1 [Example 316]
3 | – | – | 29 nM | 89% | – | Cc1cccc(NS(=O)(=O)c2ccc(-c3cccc(C)c3C)cc2C)n1 [Example 197]
4 | – | – | 660 nM | 78% | – | CCOc1ccccc1-c1ccc(S(=O)(=O)Nc2cccc(C)n2)cc1C [Example 232]
5 | 169 nM | 48.8% | – | – | – | Cc1cccc(NS(=O)(=O)c2cccc(Cl)c2C)n1 [Example 34]
6 | – | – | 31 nM | 77% | – | Cc1cccc(NS(=O)(=O)c2ccc(-c3cccc(Cl)c3)c(C)c2)n1 [Example 213]
7 | – | – | 6.7 nM | 95% | – | Cc1cccc(NS(=O)(=O)c2ccc(-c3ccc(F)c(F)c3)cc2C)n1 [Example 208]
8 | 36 nM | 100% | – | – | – | Cc1cccc(NS(=O)(=O)c2ccc(-c3ccc(Cl)cc3Cl)cc2C)n1 [Example 167]
9 | 19 nM | 93% | – | – | – | COc1ccc(-c2ccc(S(=O)(=O)Nc3cccc(C)n3)c(C)c2)cc1 [Example 169]
10 | 17 nM | 82% | – | – | – | Cc1cccc(NS(=O)(=O)c2ccc(-c3ccccc3C#N)cc2C)n1 [Example 195]
11 | – | – | 36 nM | 72% | – | Cc1cccc(NS(=O)(=O)c2ccc(-c3ccccc3)c(C)c2)n1 [Example 214]
12 | 2.5 nM | 100% | – | – | – | Cc1cccc(NS(=O)(=O)c2sc(-c3ccc(C#N)cc3)nc2C)n1 [Example 118, 2-(4-Cyano-phenyl)-4-methyl-thiazole-5-sulfonic acid (6-methyl-pyridin-2-yl)-amide]
13 | – | – | 18 nM | 87% | – | Cc1cccc(NS(=O)(=O)c2ccc(-c3ccc(Cl)cc3Cl)c(C)c2)n1 [Example 221]
14 | 43 nM | 71% | – | – | – | CCOc1cccc(-c2ccc(S(=O)(=O)Nc3cccc(C)n3)c(C)c2)c1 [Example 165]
15 | – | – | 5.7 nM | 100% | – | Cc1cccc(NS(=O)(=O)c2ccc(-c3ccc(C#N)cc3)cc2F)n1 [Example 283, 4′-Cyano-3-fluoro-biphenyl-4-sulfonic acid (6-methyl-pyridin-2-yl)-amide]
16 | – | – | 11 nM | 88.3% | – | Cc1cccc(NS(=O)(=O)N2CCc3ccccc3C2)n1 [Example 300]
17 | – | – | 27 nM | 82% | – | Cc1cccc(NS(=O)(=O)c2ccc(-c3cccc(F)c3F)c(C)c2)n1 [Example 238]
18 | – | – | 49 nM | 72.4% | – | Cc1cc(-c2ccc(S(=O)(=O)Nc3ccc4ccccc4n3)cn2)ccc1F [Example 292]
19 | 24.7 nM | 84.8% | – | – | – | Cc1cccc(NS(=O)(=O)c2ccc(-c3cccc(F)c3)cc2)n1 [Example 133]
20 | 4.3 nM | 98% | – | – | – | Nc1cccc(NS(=O)(=O)c2ccc(-c3ccccc3)cc2)n1 [Example 40]
21 | 48 nM | 52% | – | – | – | Cc1cccc(NS(=O)(=O)c2ccc(-c3ccccc3)cc2)n1 [Example 36]
22 | – | – | 10 nM | 90% | – | Cc1cccc(NS(=O)(=O)c2ccc(-c3cc(Cl)cc(Cl)c3)c(C)c2)n1 [Example 222]

Row | Ki (11β-hsd-1 enzyme [1]) | inhibition at 0.1 µM (11β-hsd-1 enzyme [2]; [3]) | Ki (11β-hsd-1 enzyme [1]; apparent Ki, 11β-hsd-1 enzyme) | inhibition at 0.1 µM (11β-hsd-1 enzyme [2]; [4]) | inhibition at 0.1 µM (11β-hsd-1 enzyme [2]; read-out: % inh @ 0.1 uM, compound at 0.1 uM) | Structure (SMILES)
23 | 13 nM | 93% | – | – | – | Cc1cccc(NS(=O)(=O)c2ccc(-c3ccccc3Cl)cc2C)n1 [Example 164]
24 | – | – | 16 nM | 28% | – | Cc1cccc(NS(=O)(=O)c2ccc(-c3cc(F)cc(F)c3)c(C)c2)n1 [Example 225]
25 | – | – | 460 nM | 94% | – | Cc1cccc(NS(=O)(=O)c2ccc(-c3cccc(CO)c3)c(C)c2)n1 [Example 226]
26 | 4.8 nM | 93.6% | – | – | – | Cc1c(S(=O)(=O)Nc2cccc(CCO)n2)sc2ccc(Cl)cc12 [Example 115, 5-Chloro-3-methyl-benzo[b]thiophene-2-sulfonic acid [6-(2-hydroxy-ethyl)-pyridin-2-yl]-amide]
27 | – | – | 2.6 nM | 100% | – | Cc1cc(C)nc(NS(=O)(=O)N2CCC(c3ccc(C#N)cc3)CC2)c1 [Example 311]
28 | 108 nM | 98% | – | – | – | Cc1cccc(NS(=O)(=O)c2ccc(C(F)(F)F)cc2)n1 [Example 35]
29 | – | – | 15 nM | 91% | – | Cc1cccc(NS(=O)(=O)c2ccc(-c3ccc(F)cc3)c(C)c2)n1 [Example 280]
30 | 9.5 nM | 93% | – | – | – | COc1ccc(-c2ccc(S(=O)(=O)Nc3cccc(C)n3)c(C)c2)cc1F [Example 187]
31 | 75 nM | 65% | – | – | – | Cc1cccc(NS(=O)(=O)c2ccc(-c3ccc(CO)cc3)cc2C)n1 [Example 180]
32 | – | – | 5.3 nM | 95.5% | – | Cc1cccc(NS(=O)(=O)c2ccc(-c3ccc(C#N)c(C)c3)cc2)n1 [Example 273]
33 | – | – | 68 nM | 73.9% | – | N#Cc1ccc(-c2ccc(S(=O)(=O)Nc3ccc4ccccc4n3)cc2)cn1 [Example 289]
34 | 4.4 nM | 100% | – | – | – | Nc1cccc(NS(=O)(=O)c2ccc(-c3ccc(C(F)(F)F)cc3)cc2)n1 [Example 95]
35 | – | – | 25 nM | 86.1% | – | O=S(=O)(Nc1ccc2ccccc2n1)N1CCc2conc2CC1 [Example 315]
36 | – | – | 29 nM | 83.6% | – | Cc1cccc(NS(=O)(=O)c2ccc(-c3ccc(N4CCOCC4)cc3)cc2)n1 [Example 251]
37 | – | – | 27 nM | 92.5% | – | O=S(=O)(Nc1ccc2ccccc2n1)c1ccc(-c2ccc(F)cc2)nc1 [Example 291]
38 | – | – | 7.4 nM | 100% | – | Cc1cccc(NS(=O)(=O)N2CCC(c3ccccc3)CC2)n1 [Example 306]
39 | – | – | 47 nM | 74% | – | Cc1cccc(NS(=O)(=O)c2ccc(-c3ccc(CC(C)C)cc3)cc2C)n1 [Example 210]
40 | – | – | 20 nM | 79.6% | – | Cc1cc(C)nc(NS(=O)(=O)N2CCc3ccccc3C2)c1 [Example 304]
41 | – | – | 7.5 nM | 100% | – | Cc1cccc(NS(=O)(=O)c2ccc(-c3cccc(F)c3F)cc2C)n1 [Example 198]
42 | 47.6 nM | 66.8% | – | – | – | CCc1cccc(NS(=O)(=O)c2cccc(Cl)c2C)n1 [Example 56]
43 | 9.6 nM | 97% | – | – | – | Cc1cccc(NS(=O)(=O)c2ccc(-c3cccc(F)c3)cc2C)n1 [Example 173]
44 | – | – | 12 nM | 100% | – | N#Cc1ccc(-c2ccc(S(=O)(=O)Nc3ccc4ccccc4n3)cn2)cc1 [Example 290, 6-(4-Cyano-phenyl)-pyridine-3-sulfonic acid quinolin-2-ylamide]

Row | Ki (11β-hsd-1 enzyme [1]) | inhibition at 0.1 µM (11β-hsd-1 enzyme [2]; [3]) | Ki (11β-hsd-1 enzyme [1]; apparent Ki, 11β-hsd-1 enzyme) | inhibition at 0.1 µM (11β-hsd-1 enzyme [2]; [4]) | inhibition at 0.1 µM (11β-hsd-1 enzyme [2]; read-out: % inh @ 0.1 uM, compound at 0.1 uM) | Structure (SMILES)
45 | 3.2 nM | 98% | – | – | – | Cc1cccc(NS(=O)(=O)c2ccc(-c3cc(Cl)cc(Cl)c3)cc2C)n1 [Example 174]
46 | 3.1 nM | 95% | – | – | – | CCc1cccc(NS(=O)(=O)c2sc(-c3ccc(C#N)cc3)nc2C)n1 [Example 119]
47 | – | – | 17 nM | 68% | – | Cc1cccc(NS(=O)(=O)c2ccc(-c3ccc(F)c(Cl)c3)c(C)c2)n1 [Example 219]
48 | 11 nM | 100% | – | – | – | CCc1ccc(-c2ccc(S(=O)(=O)Nc3cccc(C)n3)c(C)c2)cc1 [Example 191]
49 | < 1 nM | 100% | – | – | – | Cc1cccc(NS(=O)(=O)c2sc3ccc(F)cc3c2C)n1 [Example 103]
50 | – | – | 11 nM | 91% | – | N#Cc1ccc(-c2ccc(S(=O)(=O)Nc3ccc4ccccc4n3)cc2)nc1 [Example 288]
51 | – | – | 320 nM | 79% | – | Cc1cccc(NS(=O)(=O)c2ccc(-c3ccc(CO)cc3)c(C)c2)n1 [Example 223]
52 | 9.3 nM | 95% | – | – | – | Cc1cccc(NS(=O)(=O)c2ccc(-c3ccccc3F)cc2C)n1 [Example 186]
53 | – | – | 14 nM | 88% | – | Cc1cccc(NS(=O)(=O)c2ccc(-c3cc(F)ccc3F)cc2C)n1 [Example 202]
54 | 21 nM | 89% | – | – | – | COc1cccc(-c2ccc(S(=O)(=O)Nc3cccc(C)n3)c(C)c2)c1 [Example 162]
55 | 1.1 nM | 100% | – | – | – | CCc1cccc(NS(=O)(=O)c2sc3ccc(Cl)cc3c2C)n1 [Example 69]
56 | 48 nM | 82% | – | – | – | Cc1cccc(NS(=O)(=O)c2ccc(-c3ccccc3C)cc2C)n1 [Example 172]
57 | 6.9 nM | 93% | – | – | – | Cc1ccc(-c2ccc(S(=O)(=O)Nc3cccc(C)n3)c(C)c2)cc1 [Example 171]
58 | – | – | 120 nM | 74.7% | – | Cc1cccc(NS(=O)(=O)c2ccc(-c3ccncc3)cc2)n1 [Example 257]
59 | – | – | 29 nM | 74% | – | Cc1cccc(NS(=O)(=O)c2ccc(-c3cc(F)c(F)c(F)c3)c(C)c2)n1 [Example 228]
60 | – | – | 10 nM | 85% | – | Cc1cccc(NS(=O)(=O)c2ccc(-c3ccc(F)cc3C)cc2C)n1 [Example 204]
61 | – | – | 18 nM | – | 100% | Cc1cccc(NS(=O)(=O)N2CCC(c3ccc(C#N)cc3)CC2)n1 [Example 310]
62 | 170 nM | 44.7% | – | – | – | CCN(CC)C(=O)Cc1cccc(NS(=O)(=O)c2ccc3ccccc3c2)n1 [Example 22]
63 | – | – | 10 nM | 92.9% | – | Cc1cccc(NS(=O)(=O)c2ccc(-c3ccc(C#N)cc3)c(C)c2)n1 [Example 281]
64 | – | – | 43 nM | 73% | – | COc1ccc(-c2ccc(S(=O)(=O)Nc3cccc(C)n3)cc2C)cc1 [Example 216]
